This note sets out measurements from publication PMC11087444, “Multi-functionalization of reduced graphene oxide nanosheets for tumor theragnosis: Synthesis, characterization, enzyme assay, in-silico study, radiolabeling and in vivo targeting evaluation” (DARU Journal of Pharmaceutical Sciences, 2023).

Data set [1] deals with human breast cancer MDA-MB-436 cells. Put plainly: MTT cell proliferation assay, cytotoxicity of compounds 3 and 4a-c. Type of data set: cell-based. The conditions noted are these: for pIC50: Homo sapiens, MTT, BRCA1 deficient MDA-MB-436 cells; for reduction in potency (cytotoxicity): MDA-MB-436, relative to Staurosporine. The method, then: The cytotoxicity assay was performed at Department of therapeutic chemistry/ National Research Center. cytotoxic activity of target compounds 3, 4a-c was determined via three independent experiments by 3-(4,5-dimethylthiazolyl-2)-2,5-diphenyltetrazolium bromide (MTT) cell proliferation assay against the cell proliferation of human breast cancer MDA-MB-436 cells carrying natural BRCA1 deficient [R].

The next data set concerns the target T1, PARP-1 (Homo sapiens, UniProt P09874).
T1 construct: purchased Trevigen 4690-096-K
Put plainly: In vitro PARP inhibition assay (HT F Homogeneous PARP Inhibition Assay Kit). The class given is biochemical. The method, then:
Olaparib was used as positive control. Fluorescence values under the condition of excitation wavelength (544 nm) and emission wavelength (590 nm) were measured using a multi-well spectrophotometer (Molecular Devices SpectraMax M5 microplate reader, Careforde, Chicago, USA). Then, the standard curve was drawn and the inhibition rate of each test compound was calculated. IC50 value of each compound was calculated using GraphPad Prism 6 software.

A short description of data set [2]: Biodistribution of radiolabeled complexes in normal mice. The class given is in vivo, Albino mice.
Data set [3] relates to solid tumor (Ehrlich Ascites Carcinoma). The data set is described as follows: Biodistribution and tumor targeting in solid tumor-bearing mice. The class given is in vivo, Swiss Albino mice. The method, then: To form a solid tumor, a 0.2 mL of Ehrlich Ascites Carcinoma fluid was administered intramuscularly in the right thigh of female Swiss Albino mice. The animals were well-cared until the tumors became obvious (7- 10 days). The parent tumor line (Ehrlich Ascites Carcinoma) was withdrawn from 7-day-old Swiss Albino donor females and diluted with sterile physiological saline solution to yield 12.5 x 10^6 cells/mL [52].
Biodistribution studies were performed by injecting the solid tumor-bearing mice intravenously with NGO-COOH nanosheets followed by injecting the radiolabeled complexes. The mice were divided into four groups (four mice per group) according to the designated time of dissection. Following the administration of the radiolabeled nanosheets, mice were dissected at 0.5, 1, 2, 4 h post injection (p.i). Blood, solid tumor, and major organs/tissues were collected and wet-weighed. The distribution of the radioactivity in each organ/ fluid was measured ex vivo, the radioactivity in each was detected by a gamma-counter (Perkin Elmer) as presented in Fig. 4. The results were expressed as mean percentage injected dose per gram (%ID/g ± SD).

pIC50: −log10 of the molar value. Bounds are passed on as bounds.

T1 sequence (P09874 whole entry): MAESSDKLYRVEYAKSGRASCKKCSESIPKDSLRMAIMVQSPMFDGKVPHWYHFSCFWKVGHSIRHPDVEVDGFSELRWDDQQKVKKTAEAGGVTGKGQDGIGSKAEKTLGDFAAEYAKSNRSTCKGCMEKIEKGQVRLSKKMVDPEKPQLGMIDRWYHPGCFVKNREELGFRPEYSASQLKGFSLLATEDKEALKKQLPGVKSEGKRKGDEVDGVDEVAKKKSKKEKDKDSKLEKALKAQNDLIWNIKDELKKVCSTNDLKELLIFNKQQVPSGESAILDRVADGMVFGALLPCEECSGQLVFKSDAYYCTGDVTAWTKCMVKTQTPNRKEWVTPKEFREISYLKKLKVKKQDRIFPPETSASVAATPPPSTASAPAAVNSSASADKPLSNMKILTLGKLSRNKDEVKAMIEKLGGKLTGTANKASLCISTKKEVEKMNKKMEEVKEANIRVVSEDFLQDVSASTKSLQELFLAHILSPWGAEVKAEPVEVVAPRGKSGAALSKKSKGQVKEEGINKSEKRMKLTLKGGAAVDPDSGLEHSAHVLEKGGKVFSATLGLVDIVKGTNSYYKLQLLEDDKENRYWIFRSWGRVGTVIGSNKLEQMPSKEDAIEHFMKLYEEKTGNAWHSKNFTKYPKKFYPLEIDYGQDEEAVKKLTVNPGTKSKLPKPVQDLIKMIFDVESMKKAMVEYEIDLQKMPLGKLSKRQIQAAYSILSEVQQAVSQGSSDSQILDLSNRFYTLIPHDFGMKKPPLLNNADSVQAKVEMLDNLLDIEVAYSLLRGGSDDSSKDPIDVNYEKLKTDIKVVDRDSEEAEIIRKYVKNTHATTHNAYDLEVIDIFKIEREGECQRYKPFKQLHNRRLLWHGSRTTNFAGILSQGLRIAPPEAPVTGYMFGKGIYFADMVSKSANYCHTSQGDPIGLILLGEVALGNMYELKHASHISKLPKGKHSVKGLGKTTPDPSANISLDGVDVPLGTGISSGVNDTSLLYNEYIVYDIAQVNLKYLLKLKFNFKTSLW

The pIC50 is the negative decadic logarithm of the IC50, by convention in mol/L. A word on the melting point: it is the temperature of the solid-liquid transition. `O=c1[nH]c(=O)c2ccc(S(=O)(=O)Nc3nccs3)cc2[nH]1` [Compound 4c, 2,4-dioxo-N-(thiazol-2-yl)-1,2,3,4-tetrahydroquinazoline-7-sulfonamide] gave a melting point of 265 to 267 °C. In addition, in data set [1], the pIC50 was 7.40 and the “reduction in potency (cytotoxicity)” value is on record as 4 folds. Moreover, at PARP-1, the negative logarithm of the IC50 (pIC50) was 6.82.
For `Cc1ccc(NS(=O)(=O)c2ccc3c(=O)[nH]c(=O)[nH]c3c2)cc1` [Compound 4a, 2,4-Dioxo-N-(p-tolyl)-1,2,3,4-tetrahydroquinazoline-7-sulfonamide] the same measures were > 300 °C, 7.30, 5 folds and 6.36.
With “[^99mTc]Tc-2,4-dioxo-1,2,3,4-tetrahydroquinazoline-7-sulfonohydrazide [^99mTc-3]”, the blood uptake in data set [2] (normal mice, i.v., 0.5 h p.i.) is on record as 10.5 ± 1.4 %ID/g; in data set [2] (normal mice, i.v., 4 h p.i.) it was 3.2 ± 0.4 %ID/g. The liver uptake in data set [2] (normal mice, i.v., 0.5 h p.i.) is 11 ± 1.7 %ID/g; in data set [2] (normal mice, i.v., 1 h p.i.), 12 ± 1.2 %ID/g; in data set [2] (normal mice, i.v., 4 h p.i.) it was 8 ± 1.3 %ID/g. Further, the tumor uptake came out at 5.0 ± 0.40 %ID/g in data set [3] (solid tumor-bearing mice, i.v., 0.5 h p.i.); 6.5 ± 0.3 %ID/g in data set [3] (solid tumor-bearing mice, i.v., 2 h p.i.); 6.0 ± 0.4 %ID/g in data set [3] (solid tumor-bearing mice, i.v., 4 h p.i.).
For `O=C(O)c1ccccc1NS(=O)(=O)c1ccc2c(=O)[nH]c(=O)[nH]c2c1` [Compound 4b, 2-(2,4-Dioxo-1,2,3,4-tetrahydroquinazoline-7-sulfonamido) benzoic acid], the melting point was in the range of 280 to 282 °C. Further, the pIC50 against PARP-1 is 6.78.
Regarding “[^99mTc]Tc-NGO-COOH-2,4-dioxo-1,2,3,4-tetrahydroquinazoline-7-sulfonohydrazide [^99mTc-NGO-COOH-3]”, the blood uptake is listed as 5.0 ± 0.5 %ID/g in data set [2] (mouse, in vivo, iv, 0.5 h) and 1 ± 0.1 %ID/g in data set [2] (mouse, in vivo, iv, 4 h). Further, the liver uptake in data set [2] (mouse, in vivo, iv, 0.5 h) stood at 7.0 ± 0.7 %ID/g; in data set [2] (mouse, in vivo, iv, 4 h), 15.0 ± 1.5 %ID/g. The “target/nontarget (T/NT) ratio, tumor muscle to contralateral normal muscle” value in data set [3] (mouse, in vivo, iv) is reported as 9.0. Besides, the tumor uptake in data set [3] (mouse, in vivo, iv, 0.5 h) is 7.0 ± 0.70 %ID/g; in data set [3] (mouse, in vivo, iv, 1 h) it was 12.0 ± 1.2 %ID/g.
For `NNS(=O)(=O)c1ccc2c(=O)[nH]c(=O)[nH]c2c1` [Compound 3, 2,4-dioxo-1,2,3,4-tetrahydroquinazoline-7-sulfonohydrazide], the melting point lay within 268 to 270 °C. For the same compound, in data set [1], the negative-log IC50 (pIC50) was 8.22. Moreover, in data set [1] (MDA-MB-436, ratio of IC50), the “times more potent than Staurosporine (cytotoxicity)” value is listed as “about 1.6 times”. This compound gave a negative-log IC50 (pIC50) on PARP-1 of 6.58.
